# Results taken from the supplement of paper PMC10307832.
# Compound: CC1=C(C(=NN1)C)CC2=C(C3=C(S2)N(C(=O)N(C3=O)C)CC(C)C)C(=O)N4C[C@@H](CO4)O + Cc1cc(Nc2cc(N3CCN(C)CC3)nc(Sc3ccc(NC(=O)C4CC4)cc3)n2)n[nH]1 [Tozasertib] (partner 0.1 µM)
# Test: relative viability (nuclei count vs DMSO), 5 days (fraction); higher = more cells survive
# Details: first compound 0.0025 µM
# In short: (§1)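 Dosing by pin tool came one day after lung cancer cell lines were seeded in 1536-well plates, using either one drug or a fixed anchor-drug dose plus five library-drug doses (not always all listed) in √10 steps. After 5 days, nuclei were counted on 4× images. Relative viability is treated-well nuclei count divided by vehicle-well nuclei count, and values are medians of duplicate plates.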
row,Cell Line,relative viability
1,NCI-H522,0.516
2,NCI-H1623,0.463
3,NCI-H727,0.676
4,NCI-H1650,0.482
5,NCI-H1993,0.559
6,SW 1573,0.16
7,NCI-H838,0.268
8,LCLC-103H,0.544
9,NCI-H520,0.406
10,NCI-H2126,0.923
11,EMC-BAC-2,0.268
12,NCI-H2085,0.723
13,HCC-366,0.491
14,NCI-H1666,0.599
15,NCI-H596,0.976
16,LK-2,0.19

row,Cell Line,relative viability
1,NCI-H2087,0.275
2,NCI-H2342,0.599
3,SK-MES-1,0.904
4,H3255,0.803
5,COR-L23,0.155
6,COR-L 105,0.343
7,LOU-NH91,0.723
8,ChaGo-K-1,0.232
9,HCC-44,0.888
10,SW 900,0.57
11,NCI-H1648,0.462
12,NCI-H2009,0.751
13,NCI-H661,0.344
14,SK-LU-1,0.3
15,NCI-H2228,0.239
16,NCI-H2023,0.332

# Same assay, conditions: first compound 0.007906 µM
row,Cell Line,relative viability
1,NCI-H522,0.537
2,NCI-H1623,0.494
3,NCI-H727,0.788
4,NCI-H1650,0.406
5,NCI-H1993,0.522
6,SW 1573,0.171
7,NCI-H838,0.25
8,LCLC-103H,0.564
9,NCI-H520,0.433
10,NCI-H2126,0.835
11,EMC-BAC-2,0.296
12,NCI-H2085,0.622
13,HCC-366,0.11
14,NCI-H1666,0.661
15,NCI-H596,1.07
16,LK-2,0.224

row,Cell Line,relative viability
1,NCI-H2087,0.233
2,NCI-H2342,0.421
3,SK-MES-1,0.983
4,H3255,0.768
5,COR-L23,0.163
6,COR-L 105,0.355
7,LOU-NH91,0.674
8,ChaGo-K-1,0.214
9,HCC-44,0.746
10,SW 900,0.558
11,NCI-H1648,0.542
12,NCI-H2009,0.695
13,NCI-H661,0.372
14,SK-LU-1,0.266
15,NCI-H2228,0.248
16,NCI-H2023,0.362

# Same assay, conditions: first compound 0.025 µM
row,Cell Line,relative viability
1,NCI-H522,0.545
2,NCI-H1623,0.467
3,NCI-H727,0.696
4,NCI-H1650,0.386
5,NCI-H1993,0.546
6,SW 1573,0.198
7,NCI-H838,0.212
8,LCLC-103H,0.505
9,NCI-H520,0.432
10,NCI-H2126,0.832
11,EMC-BAC-2,0.272
12,NCI-H2085,0.76
13,HCC-366,0.153
14,NCI-H1666,0.592
15,NCI-H596,1.04
16,LK-2,0.175

row,Cell Line,relative viability
1,NCI-H2087,0.281
2,NCI-H2342,0.481
3,SK-MES-1,0.872
4,H3255,0.657
5,COR-L23,0.172
6,COR-L 105,0.369
7,LOU-NH91,0.709
8,ChaGo-K-1,0.235
9,HCC-44,0.915
10,SW 900,0.536
11,NCI-H1648,0.754
12,NCI-H2009,0.779
13,NCI-H661,0.354
14,SK-LU-1,0.251
15,NCI-H2228,0.265
16,NCI-H2023,0.356

# Same assay, conditions: first compound 0.07906 µM
row,Cell Line,relative viability
1,NCI-H522,0.419
2,NCI-H1623,0.398
3,NCI-H727,0.513
4,NCI-H1650,0.503
5,NCI-H1993,0.508
6,SW 1573,0.284
7,NCI-H838,0.22
8,LCLC-103H,0.551
9,NCI-H520,0.445
10,NCI-H2126,0.788
11,EMC-BAC-2,0.3
12,NCI-H2085,0.72
13,HCC-366,0.114
14,NCI-H1666,0.806
15,NCI-H596,0.94
16,LK-2,0.198

row,Cell Line,relative viability
1,NCI-H2087,0.219
2,NCI-H2342,0.558
3,SK-MES-1,1.05
4,H3255,0.56
5,COR-L23,0.18
6,COR-L 105,0.27
7,LOU-NH91,0.792
8,ChaGo-K-1,0.206
9,HCC-44,0.882
10,SW 900,0.524
11,NCI-H1648,0.37
12,NCI-H2009,0.829
13,NCI-H661,0.341
14,SK-LU-1,0.256
15,NCI-H2228,0.26
16,NCI-H2023,0.412

# Same assay, conditions: first compound 0.25 µM
row,Cell Line,relative viability
1,NCI-H522,0.418
2,NCI-H1623,0.49
3,NCI-H727,0.513
4,NCI-H1650,0.446
5,NCI-H1993,0.572
6,SW 1573,0.214
7,NCI-H838,0.242
8,LCLC-103H,0.543
9,NCI-H520,0.407
10,NCI-H2126,0.901
11,EMC-BAC-2,0.317
12,NCI-H2085,0.669
13,HCC-366,0.109
14,NCI-H1666,0.633
15,NCI-H596,0.889
16,LK-2,0.182

row,Cell Line,relative viability
1,NCI-H2087,0.33
2,NCI-H2342,0.552
3,SK-MES-1,0.908
4,H3255,0.59
5,COR-L23,0.163
6,COR-L 105,0.328
7,LOU-NH91,0.838
8,ChaGo-K-1,0.228
9,HCC-44,1.13
10,SW 900,0.591
11,NCI-H1648,0.458
12,NCI-H2009,0.745
13,NCI-H661,0.353
14,SK-LU-1,0.278
15,NCI-H2228,0.279
16,NCI-H2023,0.327

# Compound: CC1=C(C(=NN1)C)CC2=C(C3=C(S2)N(C(=O)N(C3=O)C)CC(C)C)C(=O)N4C[C@@H](CO4)O + NC(=O)Nc1cc(-c2cccc(F)c2)sc1C(=O)N[C@H]1CCCNC1 [AZD7762] (partner 0.2 µM)
# Test: as above
# Details: first compound 0.0025 µM
# In short: as §1
row,Cell Line,relative viability
1,NCI-H522,0.836
2,NCI-H727,0.6
3,NCI-H1703,0.113
4,NCI-H1993,0.893
5,NCI-H838,0.908
6,LCLC-103H,0.793
7,NCI-H2126,1.06
8,EMC-BAC-2,1.21
9,NCI-H2085,1.01
10,HCC-366,0.271
11,NCI-H1666,0.741
12,NCI-H596,1.29
13,LK-2,0.304
14,NCI-H2087,1.43
15,NCI-H2342,0.414
16,H3255,0.929
17,LOU-NH91,0.817
18,ChaGo-K-1,0.938
19,HCC-44,1
20,SW 900,0.604
21,NCI-H1648,0.615
22,NCI-H1792,0.607

# Same assay, conditions: first compound 0.007906 µM
row,Cell Line,relative viability
1,NCI-H522,1.05
2,NCI-H727,0.842
3,NCI-H1703,0.144
4,NCI-H1993,0.656
5,NCI-H838,0.859
6,LCLC-103H,0.914
7,NCI-H2126,1.08
8,EMC-BAC-2,1.2
9,NCI-H2085,1.02
10,HCC-366,0.361
11,NCI-H1666,0.859
12,NCI-H596,1.25
13,LK-2,0.252
14,NCI-H2087,1.37
15,NCI-H2342,0.505
16,H3255,0.927
17,LOU-NH91,0.817
18,ChaGo-K-1,0.919
19,HCC-44,0.984
20,SW 900,0.706
21,NCI-H1648,0.437
22,NCI-H1792,0.727

# Same assay, conditions: first compound 0.025 µM
row,Cell Line,relative viability
1,NCI-H522,0.546
2,NCI-H727,0.575
3,NCI-H1703,0.112
4,NCI-H1993,0.596
5,NCI-H838,0.884
6,LCLC-103H,0.768
7,NCI-H2126,0.943
8,EMC-BAC-2,1.07
9,NCI-H2085,0.879
10,HCC-366,0.297
11,NCI-H1666,0.812
12,NCI-H596,1.06
13,LK-2,0.298
14,NCI-H2087,1.15
15,NCI-H2342,0.345
16,H3255,0.755
17,LOU-NH91,0.75
18,ChaGo-K-1,0.855
19,HCC-44,0.98
20,SW 900,0.628
21,NCI-H1648,0.5
22,NCI-H1792,0.512

# Same assay, conditions: first compound 0.07906 µM
row,Cell Line,relative viability
1,NCI-H522,0.565
2,NCI-H727,0.623
3,NCI-H1703,0.113
4,NCI-H1993,0.674
5,NCI-H838,0.835
6,LCLC-103H,0.807
7,NCI-H2126,0.867
8,EMC-BAC-2,1.19
9,NCI-H2085,0.986
10,HCC-366,0.277
11,NCI-H1666,0.787
12,NCI-H596,0.976
13,LK-2,0.129
14,NCI-H2087,1.13
15,NCI-H2342,0.373
16,H3255,0.85
17,LOU-NH91,0.863
18,ChaGo-K-1,0.823
19,HCC-44,1.06
20,SW 900,0.58
21,NCI-H1648,0.428
22,NCI-H1792,0.564

# Same assay, conditions: first compound 0.25 µM
row,Cell Line,relative viability
1,NCI-H522,0.624
2,NCI-H727,0.652
3,NCI-H1703,0.136
4,NCI-H1993,0.696
5,NCI-H838,0.896
6,LCLC-103H,0.749
7,NCI-H2126,1.05
8,EMC-BAC-2,1.01
9,NCI-H2085,0.448
10,HCC-366,0.378
11,NCI-H1666,1.01
12,NCI-H596,1.01
13,LK-2,0.134
14,NCI-H2087,1.3
15,NCI-H2342,0.388
16,H3255,0.936
17,LOU-NH91,0.742
18,ChaGo-K-1,0.889
19,HCC-44,1.07
20,SW 900,0.449
21,NCI-H1648,0.613
22,NCI-H1792,0.578

# Compound: CC1=C(C(=NN1)C)CC2=C(C3=C(S2)N(C(=O)N(C3=O)C)CC(C)C)C(=O)N4C[C@@H](CO4)O + COc1cc2c(Oc3ccc(NC(=O)C4(C(=O)Nc5ccc(F)cc5)CC4)cc3F)ccnc2cc1OCCCN1CCOCC1 [Foretinib] (partner 0.25 µM)
# Test: as above
# Details: first compound 0.0025 µM
# In short: as §1
row,Cell Line,relative viability
1,NCI-H1623,0.985
2,NCI-H727,1.15
3,NCI-H1650,1.18
4,EBC-1,0.117
5,NCI-H1703,0.38
6,NCI-H1993,0.767
7,SW 1573,0.958
8,NCI-H838,1.06
9,LCLC-103H,0.89
10,NCI-H520,0.894
11,NCI-H2126,1.28
12,EMC-BAC-2,1.04
13,NCI-H2085,0.965
14,Calu-6,0.984
15,HCC-366,0.918
16,NCI-H1666,0.93
17,NCI-H596,1.08
18,LK-2,1.04

row,Cell Line,relative viability
1,NCI-H2087,1.05
2,NCI-H2342,1.14
3,SK-MES-1,0.901
4,H3255,1.03
5,COR-L23,0.947
6,COR-L 105,1.1
7,IA-LM,1.25
8,LOU-NH91,0.931
9,ChaGo-K-1,0.886
10,A549,1.03
11,SW 900,1.01
12,NCI-H2009,1.16
13,NCI-H661,1
14,SK-LU-1,0.659
15,NCI-H1299,1.06
16,NCI-H2228,0.828
17,NCI-H2023,0.871
18,NCI-H1563,0.933

# Same assay, conditions: first compound 0.007906 µM
row,Cell Line,relative viability
1,NCI-H1623,0.788
